Where a name gives a salt, the structure may show the parent alone.
Tested on: MTT (mouse pheochromocytoma)
Assay: IC50 of cell viability (ATP content)
Details: (24 or 48 h)
Summary of the method: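 Each well of a white 1536-well plate received 5 µl of MTT mouse pheochromocytoma cells at 200,000 cells/ml in DMEM containing 5% FBS and 1% horse serum. After overnight culture at 37°C, 5% CO2, cells were exposed for 24 or 48 hrs to 23 nl of library compound in DMSO, pinned at 8 final concentrations from 0.5 nM to 46 µM. CellTiter-Glo luminescence was read after 15 minutes, and IC50 was obtained from a four-parameter logistic fit of signals normalised to positive-control and DMSO wells.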

IC50 of cell viability [µM] | Structure (SMILES)
> 46 | C#C[C@]1(O)CC[C@H]2[C@@H]3CCC4=CC(=O)CC[C@@H]4[C@H]3CC[C@@]21CC [Levonorgestrel]
> 46 | CCN1CCC[C@H]1CNC(=O)c1cc([S+](N)(=O)[O-])ccc1OC [Levosulpiride]
> 46 | N[C@@H](Cc1cc(I)c(Oc2cc(I)c(O)c(I)c2)c(I)c1)C(=O)O [Levothyroxine]
> 46 | CNC(=N)NC(=O)Nc1c(C)cccc1C [Lidamidine]
> 46 | Cc1cccc(C)c1NC(=O)CN(CC(=O)O)CC(=O)O [Lidofenin]
> 46 | Cc1cccc(C)c1NC(=O)CN1CCN(CCCC(c2ccc(F)cc2)c2ccc(F)cc2)CC1 [Lidoflazine]
> 46 | CN1CCC(OC(=O)C(Oc2ccc(Cl)cc2)Oc2ccc(Cl)cc2)CC1 [Lifibrate]
> 46 | CCC[C@@H]1C[C@@H](C(=O)N[C@@H]([C@H]2O[C@H](SC)[C@H](O)[C@@H](O)[C@H]2O)[C@@H](C)O)N(C)C1 [Lincomycin hydrochloride]
> 46 | CC(=O)NC[C@@H]1CN(c2ccc(N3CCOCC3)c(F)c2)C(=O)O1 [Linezolid]
> 46 | CCCCC/C=C\C/C=C\CCCCCCCC(=O)O [Linoleic acid]
> 46 | CN(C1=CC=CC=C1)C(=O)C/2=C(O)/C3=C(C=CC=C3)N(C)C2=O [Linomide]
> 46 | O=C1N(c2ccccc2)c2ccccc2C1(Cc1ccncc1)Cc1ccncc1 [Linopirdine dihydrochloride]
> 46 | NCCCC[C@H](N[C@@H](CCc1ccccc1)C(=O)O)C(=O)N1CCC[C@@H]1C(=O)O.O.O [Lisinopril]
> 46 | CC(O)CCCCn1c(=O)c2c(ncn2C)n(C)c1=O (stereo not given) [Lisofylline]
> 46 | CCN1\C=C(\C(O)=O)C(=O)C2=CC(=C(N3CCN[C@@H](C)C3)C(=C12)F)F [Lomefloxacin HCl]
> 46 | CCN1\C=C(\C(O)=O)C(=O)C2=CC(=C(N3CCN[C@@H](C)C3)C(=C12)F)F [Lomefloxacin hydrochloride]
> 46 | O=C(O)Cc1cn(-c2ccccc2)nc1-c1ccc(Cl)cc1 [Lonazolac]
> 46 | Cl/C(=C\n1cncn1)c1ccc(Cl)cc1Cl [Loreclezole hydrochloride]
> 46 | CN1C(C(=O)Nc2ccccn2)C(=O)c2sc(Cl)cc2[S+]1(=O)[O-] (stereo not given) [Lornoxicam]
> 46 | CCOC(=O)O[C@]1(C(=O)OCCl)CC[C@H]2[C@@H]3CCC4=CC(=O)C=C[C@]4(C)[C@H]3[C@@H](O)C[C@@]21C [Loteprednol etabonate]
> 46 | CC[C@H](C)C(=O)O[C@H]1C[C@@H](C)\C=C2\C=C/[C@H](C)[C@H](CC[C@@H]3C[C@@H](O)CC(=O)O3)[C@@H]12 [Lovastatin]

IC50 of cell viability [µM] | Structure (SMILES)
> 46 | CN1CCN(CC1)\C2=N\C3=C(OC4=C2C=C(Cl)C=C4)C=CC=C3.OC(=O)CCC(O)=O [Loxapine succinate]
> 46 | CCNC(=O)NCc1cccc(Cl)c1 [Lozilurea]
> 46 | CCCCC(F)(F)[C@@]1(O)CC[C@H]2[C@@H](CC(=O)[C@@H]2CCCCCCC(=O)O)O1 [Lubiprostone]
> 46 | N#C/C(=C1/SC[C@@H](c2ccc(Cl)cc2Cl)S1)n1ccnc1 [Luliconazole]
> 46 | Cc1ccc(Nc2c(F)cccc2Cl)c(CC(=O)O)c1 [Lumiracoxib]
> 46 | C[C@]12CC[C@@H]3[C@H](CC\C4=C\CCC[C@H]34)[C@@H]1CC[C@]2(O)C#C [Lynestrenol]
> 46 | NCCCCC(NC(=O)C1CCCN1C(=O)C1CSSCC(N)C(=O)NC(Cc2ccc(O)cc2)C(=O)NC(Cc2ccccc2)C(=O)NC(CCC(N)=O)C(=O)NC(CC(N)=O)C(=O)N1)C(=O)NCC(N)=O (stereo not given) [Lypressin]
> 46 | NCCCCC(N)C(=O)O (stereo not given) [Lysine]
> 46 | O=C1[O][Mg]2([O]C(=O)c3ccccc3[O]2)[O]c2ccccc21 [MAGNESIUM SALICYLATE]
> 46 | O=C(O)CC(O)C(=O)O.[NaH] (stereo not given) [MALIC ACID]
> 46 | CNCCCC12CCC(c3ccccc31)c1ccccc12 [MAPROTILINE]
> 46 | Cc1cc(C)c(NC(=O)CN(CC(=O)O)CC(=O)O)c(C)c1Br [MEBROFENIN]
> 46 | CNC1(C)C2CCC(C2)C1(C)C (stereo not given) [MECAMYLAMINE]
> 46 | O=P(O)(O)CP(=O)(O)O [MEDRONIC ACID]
> 46 | CC1CC2C(CC[C@]3(C)C2CC[C@@]3(OC(C)=O)C(C)=O)[C@]\4(C)CCC(=O)\C=C14 (stereo not given in full) [MEDROXYPROGESTERONE ACETATE]
> 46 | CCN(CC)CCNC(=O)COc1ccc(OC)cc1.Cl [MEFEXAMIDE]
> 46 | CN(CC1(C)CCCO1)[S+](=O)([O-])c1ccc(Cl)c([S+](N)(=O)[O-])c1 (stereo not given) [MEFRUSIDE]
> 46 | COc1ccc2[nH]cc(CCNC(C)=O)c2c1 [MELATONIN]
> 46 | CCCCC/C=C/C/C=C/CCCCCCCC(=O)NC(C)c1ccccc1 (stereo not given) [MELINAMIDE]
> 46 | CN1\C(=C(\O)C2=CC=CC=C2[S+]1([O-])=O)C(=O)NC3=NC=C(C)S3 [MELOXICAM]
> 46 | CC1CCN(CCCC(=O)c2ccc(F)cc2)CC1 [MELPERONUM]

Structure (SMILES) | IC50 of cell viability [µM]
C[C@H]1CN(C2CCC(C#N)(c3ccc(F)cc3)CC2)CC[C@@]1(C(=O)O)c1ccccc1 (stereo not given in full) [Levocabastine hydrochloride] | > 46
c1ccc2c(c1)Sc1ccccc1N2C[C@H]1CN2CCC1CC2 [Levomequitazine] | > 46
CCC(=O)O[C@@](Cc1ccccc1)(c1ccccc1)[C@@H](C)CN(C)C.O=[S+]([O-])(O)c1ccc2ccccc2c1 [Levopropoxyphene napsylate] | > 46
O=C(O)c1nn(Cc2ccc(Cl)cc2Cl)c2ccccc12 [Lonidamine] | > 46
O=C1Nc2ccc(Cl)cc2C(c2ccccc2Cl)=NC1O (stereo not given) [Lorazepam] | > 46
CCCC(C)(COC(N)=O)COC(=O)NC1CC1 (stereo not given) [Lorbamate] | > 46
C[C@H]1CNCCc2ccc(Cl)cc21 [Lorcaserin] | > 46
O=C(NC(=O)c1c(F)cccc1F)Nc1cc(Cl)c(OC(F)(F)C(F)C(F)(F)F)cc1Cl (stereo not given) [Lufenuron] | > 46
CCN(CC)C(=O)[C@H]\1CN(C)[C@@H]\2CC3=C[NH]C4=C3C(=CC=C4)C2=C1 [Lysergic acid diethylamide] | > 46
CC(C)(C)NCC(O)c1cc(Cl)c(N)c(C(F)(F)F)c1 (stereo not given) [MABUTEROL HYDROCHLORIDE] | > 46
CCOC(=O)CC(SP(=S)(OC)OC)C(=O)OCC (stereo not given) [MALATHION] | > 46
O=C(O)/C=C/C(=O)O [MALEIC ACID] | > 46
CNC(=O)NC(O)C(Cl)(Cl)Cl (stereo not given) [MECLORALUREA] | > 46

— the supplement of paper PMC3974653
